# Results reported in patent publication US11203600B2 (Denali Therapeutics Inc., priority 2017, dated 2021).
# Molecular target: GST-hRIPK1 (8-327) (Homo sapiens (Human), UniProt Q13546)
# Test: Fluorescent Polarization Binding (FP Binding) assay, RIPK1
# Settings: GST-hRIPK1 (8-327), mean of at least two independent experiments
# Outline: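 Compound displacement of 5 nM labelled ligand from 10 nM GST-hRIPK1 (8-327) was read as FP (531/595 nm) after 30 min at RT. Buffer: HEPES pH 7.5, NaCl, MgCl2, CHAPS, DTT, Pluronic; 1% DMSO final. IC50s were averaged over at least two independent runs.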
# GST-hRIPK1 (8-327), sequence (Q13546 8-327): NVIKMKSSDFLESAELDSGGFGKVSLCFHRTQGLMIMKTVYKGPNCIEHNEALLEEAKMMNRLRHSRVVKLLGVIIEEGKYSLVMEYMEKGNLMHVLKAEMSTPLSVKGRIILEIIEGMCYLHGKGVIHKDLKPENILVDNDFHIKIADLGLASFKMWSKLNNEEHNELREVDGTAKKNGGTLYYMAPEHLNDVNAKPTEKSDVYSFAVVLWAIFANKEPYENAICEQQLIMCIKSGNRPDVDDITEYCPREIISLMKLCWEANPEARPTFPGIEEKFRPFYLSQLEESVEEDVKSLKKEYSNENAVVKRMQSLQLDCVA
row,SMILES,IC50 [µM]
1,"N#Cc1cncc2c1OCCN(C(=O)C1CCN(c3ccnc4ccnn34)C[C@@H]1F)C2 (stereo partly drawn) [Example 249, 4-[(3,4)-trans-3-fluoro-1-pyrazolo[1,5-a]pyrimidin-7-yl-piperidine-4-carbonyl]-3,5-dihydro-2H-pyrido[3,4-f][1,4]oxazepine-9-carbonitrile]",0.0001 to 0.1
2,"N#Cc1cncc2c1OCCN(C(=O)C1CCN(c3nccc4ncnn34)C[C@@H]1F)C2 (stereo partly drawn) [Example 250, 4-[(3,4)-trans-3-fluoro-1-([1,2,4]triazolo[1,5-c]pyrimidin-5-yl)piperidine-4-carbonyl]-3,5-dihydro-2H-pyrido[3,4-f][1,4]oxazepine-9-carbonitrile]",0.1 to 1
3,"O=C(C1CCN(c2nccc3ncnn23)CC1(F)F)N1CCOc2c(F)cncc2C1 (stereo not shown) [Example 251, [3,3-difluoro-1-([1,2,4]triazolo[1,5-c]pyrimidin-5-yl)-4-piperidyl]-(9-fluoro-3,5-dihydro-2H-pyrido[3,4-f][1,4]oxazepin-4-yl)methanone]",0.1 to 1
4,"O=C(C1CCN(c2ccnc3ccnn23)CC1(F)F)N1CCOc2c(F)cncc2C1 (stereo not shown) [Example 252, (3,3-difluoro-1-pyrazolo[1,5-a]pyrimidin-7-yl-4-piperidyl)-(9-fluoro-3,5-dihydro-2H-pyrido[3,4-f][1,4]oxazepin-4-yl)methanone]",0.1 to 1
5,"O=C(C1CCN(c2ccnc3ccnn23)C[C@@H]1F)N1CCOc2c(F)cncc2C1 (stereo partly drawn) [Example 253, (9-fluoro-3,5-dihydro-2H-pyrido[3,4-f][1,4]oxazepin-4-yl)-[(3,4)-trans-3-fluoro-1-pyrazolo[1,5-a]pyrimidin-7-yl-4-piperidyl]methanone]",0.0001 to 0.1
6,"O=C(C1CCN(c2ncc(F)cn2)C[C@@H]1F)N1CCOc2ccncc2C1 (stereo partly drawn) [Example 254, 3,5-dihydro-2H-pyrido[3,4-f][1,4]oxazepin-4-yl-[(3,4)-trans-3-fluoro-1-(5-fluoropyrimidin-2-yl)-4-piperidyl]methanone]",0.1 to 1
7,O=C(C1CCN(c2nccc3ncnn23)C[C@@H]1F)N1CCOc2c(F)cncc2C1 (stereo partly shown) [Example 255],0.1 to 1
8,"O=C(C1CCN(c2ccnc3c(F)cnn23)C[C@@H]1F)N1CCOc2c(F)cncc2C1 (stereo partly drawn) [Example 256, (9-fluoro-3,5-dihydro-2H-pyrido[3,4-f][1,4]oxazepin-4-yl)-[(3,4)-trans-3-fluoro-1-(3-fluoropyrazolo[1,5-a]pyrimidin-7-yl)-4-piperidyl]methanone]",0.0001 to 0.1
9,"O=C(C1CCN(c2nccn3ncnc23)C[C@@H]1F)N1CCOc2c(F)cncc2C1 (stereo partly drawn) [Example 257, (9-fluoro-3,5-dihydro-2H-pyrido[3,4-f][1,4]oxazepin-4-yl)-[(3,4)-trans-3-fluoro-1-([1,2,4]triazolo[1,5-a]pyrazin-8-yl)-4-piperidyl]methanone]",0.1 to 1
10,"Cc1ncc2c(c1C#N)OCCN(C(=O)C(C)(C)C(F)F)C2 [Example 262, 4-(3,3-difluoro-2,2-dimethyl-propanoyl)-8-methyl-3,5-dihydro-2H-pyrido[3,4-f][1,4]oxazepine-9-carbonitrile]",0.1 to 1
11,"[2H]C1([2H])Oc2c(C#N)cncc2CN(C(=O)C(C)(C)C(F)F)C1([2H])[2H] [Example 263, 2,2,3,3-tetradeuterio-4-(3,3-difluoro-2,2-dimethyl-propanoyl)-5H-pyrido[3,4-f][1,4]oxazepine-9-carbonitrile]",0.0001 to 0.1
12,"CC(CF)(C(=O)N1CCOc2c(C#N)cncc2C1)C(F)F (stereo not shown) [Example 266, 4-[3,3-Difluoro-2-(fluoromethyl)-2-methyl-propanoyl]-3,5-dihydro-2H-pyrido[3,4-f][1,4]oxazepine-9-carbonitrile]",0.1 to 1
13,"CC(F)(F)C(C)(CF)C(=O)N1CCOc2c(C#N)cncc2C1 (stereo not shown) [Example 267, 4-[3,3-Difluoro-2-(fluoromethyl)-2-methyl-butanoyl]-3,5-dihydro-2H-pyrido[3,4-f][1,4]oxazepine-9-carbonitrile]",0.1 to 1
14,"CC(C(=O)N1CCOc2c(C#N)cncc2C1)(C(F)F)C(F)F [Example 268, 4-[2-(difluoromethyl)-3,3-difluoro-2-methyl-propanoyl]-3,5-dihydro-2H-pyrido[3,4-f][1,4]oxazepine-9-carbonitrile]",0.1 to 1
15,"CC(F)(F)C(C)(C(=O)N1CCOc2c(C#N)cncc2C1)C(F)F (stereo not shown) [Example 269, 4-[2-(difluoromethyl)-3,3-difluoro-2-methyl-butanoyl]-3,5-dihydro-2H-pyrido[3,4-f][1,4]oxazepine-9-carbonitrile]",0.1 to 1
16,"C=CC(C)(C)C(=O)N1CCOc2c(C#N)cncc2C1 [Example 271, 4-(2,2-dimethylbut-3-enoyl)-3,5-dihydro-2H-pyrido[3,4-f][1,4]oxazepine-9-carbonitrile]",0.0001 to 0.1
17,"CC(C)(C(=O)N1CCOc2c(C#N)cncc2C1)C1CC1COC(F)(F)F (stereo not shown) [Example 274, 4-(2-Methyl-2-(2-((trifluoromethoxy)methyl)cyclopropyl)propanoyl)-2,3,4,5-tetrahydropyrido[3,4-f][1,4]oxazepine-9-carbonitrile]",> 1
18,"CC(C)(C(=O)N1CCOc2c(C#N)cncc2C1)C1CC(n2nccn2)C1 (stereo not shown) [Example 275, 4-[2-Methyl-2-[3-(triazol-2-yl)cyclobutyl]propanoyl]-3,5-dihydro-2H-pyrido[3,4-f][1,4]oxazepine-9-carbonitrile]",0.1 to 1
19,"CC(C)(C(=O)N1CCOc2c(C#N)cncc2C1)C1CC(n2ccnn2)C1 (stereo not shown) [Example 276, 4-[2-Methyl-2-[3-(triazol-1-yl)cyclobutyl]propanoyl]-3,5-dihydro-2H-pyrido[3,4-f][1,4]oxazepine-9-carbonitrile]",> 1
20,"CC(C)(C(=O)N1CCOc2c(C#N)cncc2C1)C1CC(n2cc(F)cn2)C1 (stereo not shown) [Example 277, 4-[2-[3-(4-fluoropyrazol-1-yl)cyclobutyl]-2-methyl-propanoyl]-3,5-dihydro-2H-pyrido[3,4-f][1,4]oxazepine-9-carbonitrile]",0.1 to 1
21,"CC(C)(C(=O)N1CCOc2c(C#N)cncc2C1)C1CC(Cl)C1 (stereo not shown) [Example 278, 4-[2-(3-chlorocyclobutyl)-2-methyl-propanoyl]-3,5-dihydro-2H-pyrido[3,4-f][1,4]oxazepine-9-carbonitrile]",0.0001 to 0.1
22,"CC(C)(C(=O)N1CCOc2c(C#N)cncc2C1)C1CC(OC(F)(F)F)C1 (stereo not shown) [Example 279, 4-[2-methyl-2-[3-(trifluoromethoxy)cyclobutyl]propanoyl]-3,5-dihydro-2H-pyrido[3,4-f][1,4]oxazepine-9-carbonitrile]",0.0001 to 0.1
23,"N#Cc1cncc2c1OCCN(C(=O)C1(F)CCN(c3ccc4c(n3)CNC4)CC1)C2 [Example 286, 4-[1-(6,7-dihydro-5H-pyrrolo[3,4-b]pyridin-2-yl)-4-fluoro-piperidine-4-carbonyl]-3,5-dihydro-2H-pyrido[3,4-f][1,4]oxazepine-9-carbonitrile]",> 1
24,"COc1nc(N2CCC(C(=O)N3CCOc4c(C#N)cncc4C3)CC2)c(F)cc1F [Example 287, 4-[1-(3,5-difluoro-6-methoxy-2-pyridyl)piperidine-4-carbonyl]-3,5-dihydro-2H-pyrido[3,4-f][1,4]oxazepine-9-carbonitrile]",0.0001 to 0.1
25,"N#Cc1cncc2c1OCCN(C(=O)C1CCN(c3nc(F)c(F)cc3F)CC1)C2 [Example 288, 4-[1-(3,5,6-trifluoro-2-pyridyl)piperidine-4-carbonyl]-3,5-dihydro-2H-pyrido[3,4-f][1,4]oxazepine-9-carbonitrile]",0.0001 to 0.1
